# Measurements from patent US20230218726A1, “TREATMENT OF VIRAL CONJUNCTIVITIS” (Okogen, Inc., priority 2020, published 2023).
# B1: ranpirnase: amphibian ribonuclease from Rana pipiens oocytes/early embryos, RNase A superfamily, about 12 kD (protein, UniProt P22069 1-104, looked up)
# Protein P-30: QDWLTFQKKHITNTRDVDCDNIMSTNLFHCKDKNTFIYSRPEPVKAICKGIIASKNVLTTSEFYLSDCNVTSRPCKYKLKKSTNKFCVTCENQAPVHFVGVGSC
# Experiments:
# [1] = Chromatographic compatibility analyses (cation exchange, size exclusion, BAK method); assay type: physicochemical; details: no interference in cation exchange, size exclusion and BAK chromatography; PBS pH 7.4
# Protocol: A formulation was prepared having 0.03% w/v ranpirnase together with oxymetazoline or brimonidine. The formulations were analyzed by chromatography to verify whether the therapeutic agent interferes with ranpirnase. Several chromatography methods were employed, including cation exchange and size exclusion chromatography, as well as benzalkonium chloride (BAK) analysis.
# (§1) For cation exchange chromatography, analysis was performed with the following solutions: diluent (PBS pH 7.4), oxymetazoline HCl (0.5 mg/mL), placebo, and ranpirnase. Oxymetazoline HCl (0.5 mg/mL) solution was prepared in diluent. Both ranpirnase and its placebo were removed from the refrigerator, warmed to room temperature, and vialed into HPLC vials.
# as §1, with “size exclusion” for “cation exchange”, “on” for “with”
# The benzalkonium chloride (BAK) analysis was performed on the following solutions: diluent (PBS pH 7.4), oxymetazoline HCl (0.05 mg/mL), placebo, and ranpirnase. Oxymetazoline HCl (0.5 mg/mL) solution (10×) was diluted to 0.05 mg/mL in diluent. […]
# [2] = system: epidemic keratoconjunctivitis (EKC); details: eye drops tested clinically; cited from earlier work
# [3] = system: NFκB; details: in vitro study; cited from earlier work
molecule,measurement,setting,value
"Cc1cc(C(C)(C)C)c(O)c(C)c1CC1=NCCN1 [oxymetazoline, 3-(4,5-dihydro-1H-imidazol-2-ylmethyl)-2,4-dimethyl-6-tert-butyl-phenol]",compatibility of formulating with ranpirnase in an ophthalmic formulation,[1],compatibility
Nc1ccn(C[C@@H](CO)OCP(=O)(O)O)c(=O)n1 [cidofovir],clinical benefit in epidemic keratoconjunctivitis,[2],no definitive benefit was observed
B1,translocation of NFκB into the nucleus,[3],inhibits translocation of NFκB into the nucleus
